How the values were obtained:
arrowleaf sida = assay: Test F preemergence; type: in vivo, Sida rhombifolia
From the text: (§1) Seeds of plant species selected from corn (Zea mays), soybean (Glycine max), velvetleaf (Abutilon theophrasti), lambsquarters (Chenopodium album), wild poinsettia (Euphorbia heterophylla), pigweed, palmer (palmer pigweed, Amaranthus palmeri), common waterhemp (Amaranthus rudis), surinam grass (Brachiaria decumbens), large crabgrass (Digitaria sanguinalis), crabgrass, Brazil (Brazilian crabgrass, Digitaria horizontalis), fall panicum (Panicum dichotomiflorum), giant foxtail (Setaria faberii), green foxtail (Setaria viridis), goosegrass (Eleusine indica), johnsongrass (Sorghum halepense), common ragweed (Ambrosia elation), barnyardgrass (Echinochloa crus-galli), southern sandbur (Cenchrus echinatus), arrowleaf sida (Sida rhombifolia), Italian ryegrass (Lolium multiflorum), dayflower, VA (Virginia (VA) dayflower, Commelina virginica), field bindweed (Convolvulus arvensis), cocklebur (common cocklebur, Xanthium strumarium), morningglory (Ipomoea coccinea), nightshade (eastern black nightshade, Solanum ptycanthum), kochia (Kochia scoparia), yellow nutsedge (Cyperus esculentus), and hairy beggarticks (Bidens pilosa), were planted into a silt loam soil and treated preemergence with test chemicals formulated in a non-phytotoxic solvent mixture which included a surfactant.
(§2) At the same time, plants from these crop and weed species and also horseweed (Canada horseweed, Conyza canadensis), smartweed (ladysthumb smartweed, Polygonum persicaria), waterhemp_RES1, (ALS & Triazine resistant common waterhemp, Amaranthus rudis), and waterhemp_RES2, (ALS & HPPD resistant common waterhemp, Amaranthus rudis) were treated with postemergence applications of test chemicals formulated in the same manner. Plants ranged in height from 2 to 18 cm for postemergence treatments (1- to 4-leaf stage). Treated plants and controls were maintained in a greenhouse for 14 to 21 days, after which time all species were compared to controls and visually evaluated. Plant response ratings, summarized in Table F, are based on a scale of 0 to 100 where 0 is no effect and 100 is complete control. A dash (-) response means no test result.

deadnettle = assay: Test D preemergence; type: in vivo, Lamium amplexicaule; conditions: scale 0 to 100
From the text: (§3) Seeds of plant species selected from bluegrass (annual bluegrass, Poa annua), blackgrass (Alopecurus myosuroides), canarygrass (littleseed canarygrass, Phalaris minor), chickweed (common chickweed, Stellaria media), galium (catchweed bedstraw, Galium aparine), bromegrass, downy (downy bromegrass, Bromus tectorum), field poppy (Papaver rhoeas), field violet (Viola arvensis), foxtail, green (green foxtail, Setaria viridis), deadnettle (henbit deadnettle, Lamium amplexicaule), ryegrass, Italian (Italian ryegrass, Lolium multiflorum), kochia (Kochia scoparia), lambsquarters (Chenopodium album), oilseed rape (Brassica napus), pigweed (redroot pigweed, Amaranthus retroflexus), chamomile (scentless chamomile, Matricaria inodora), speedwell (bird's-eye speedwell, Veronica persica), barley, spring (spring barley, Hordeum vulgare), wheat, spring (spring wheat, Triticum aestivum), buckwheat, wild (wild buckwheat, Polygonum convolvulus), mustard, wild (wild mustard, Sinapis arvensis), oat, wild (wild oat, Avena fatua), radish, wild (wild radish, Raphanus raphanistrum), windgrass (Apera spica-venti), Russian thistle (Salsola kali), barley, winter (winter barley, Hordeum vulgare), and wheat, winter (winter wheat, Triticum aestivum) were planted into a silt loam soil and treated preemergence with test chemicals formulated in a non-phytotoxic solvent mixture which included a surfactant.
(§4) At the same time, these species were planted in pots containing Redi-Earth® planting medium (Scotts Company, 14111 Scottslawn Road, Marysville, Ohio 43041) comprising spaghnum peat moss, vermiculite, wetting agent and starter nutrients and treated with postemergence applications of the test chemicals formulated in the same manner. Plants ranged in height from 2 to 18 cm (1- to 4-leaf stage). Treated plants and controls were maintained in a controlled growth environment for 14 to 21 days after which time all species were compared to controls and visually evaluated. Plant response ratings, summarized in Table D, are based on a scale of 0 to 100 where 0 is no effect and 100 is complete control. A dash (-) response means no test result.

wheat, spring = assay: Test D preemergence; type: in vivo, Triticum aestivum; conditions: scale 0 to 100
Procedure, shortened: (§5)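 Visual 0–100 control ratings at 14–21 days in a controlled growth environment. Application preemergence onto silt loam or postemergence onto 2–18 cm seedlings, using a non-phytotoxic solvent formulation with surfactant.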

wheat, winter = assay: Test D preemergence; type: in vivo, Triticum aestivum; conditions: scale 0 to 100
Procedure, shortened: as §5

bluegrass = assay: Test D preemergence; type: in vivo, Poa annua; conditions: scale 0 to 100
From the text: as §3, §4

field bindweed = assay: Test F preemergence; type: in vivo, Convolvulus arvensis
Procedure, shortened: (§6)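 Visual rating 0–100 vs untreated controls (0 = no effect, 100 = complete control) after 14–21 d greenhouse. Pre: seeds in silt loam soil. Post: plants 2–18 cm, 1–4 leaf. Formulation: non-phytotoxic solvent mix + surfactant.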

green foxtail = assay: Test F preemergence; type: in vivo, Setaria viridis
Procedure, shortened: as §6

mustard, wild = assay: Test D preemergence; type: in vivo, Sinapis arvensis; conditions: scale 0 to 100
From the text: as §3, §4

radish, wild = assay: Test D preemergence; type: in vivo, Raphanus raphanistrum; conditions: scale 0 to 100
Procedure, shortened: as §5

corn = assay: Test F preemergence; type: in vivo, Zea mays
From the text: as §1, §2

common ragweed = assay: Test F preemergence; type: in vivo, Ambrosia elation
Procedure, shortened: as §6

oilseed rape = assay: Test D preemergence; type: in vivo, Brassica napus; conditions: scale 0 to 100
Procedure, shortened: as §5

blackgrass = assay: Test D postemergence; type: in vivo, Alopecurus myosuroides; conditions: scale 0 to 100
From the text: as §3, §4

fall panicum = assay: Test F preemergence; type: in vivo, Panicum dichotomiflorum
Procedure, shortened: as §6

[1] = Preemergence, 31 g ai/ha, scale 0 to 100
[2] = Preemergence, 62 g ai/ha, scale 0 to 100
[3] = Preemergence, 125 g ai/ha, scale 0 to 100
[4] = preemergence, 8 g ai/ha, scale 0 to 100, 100 is complete control
[5] = preemergence, 16 g ai/ha, scale 0 to 100, 100 is complete control

SMILES: CCc1cc(C(=O)NCC(F)(F)F)nn1Cc1ccnc(C(F)(F)F)c1 [Compound 78, 5-ethyl-N-(2,2,2-trifluoroethyl)-1-[[(2-trifluoromethyl)-4-pyridinyl]methyl]-1H-pyrazole-3-carboxamide]
- Plant response rating, Arrowleaf Sida (arrowleaf sida; [1]): 0
- Plant response rating, Arrowleaf Sida (arrowleaf sida; [2]): 20
- Plant response rating, Arrowleaf Sida (arrowleaf sida; [3]): 35
- Plant response rating, Arrowleaf Sida (arrowleaf sida; [4]): 0
- Plant response rating, Arrowleaf Sida (arrowleaf sida; [5]): 0
- Plant response rating, Deadnettle (deadnettle; 31 g ai/ha): 10
- Plant response rating, Deadnettle (deadnettle; 62 g ai/ha): 10
- Plant response rating, Deadnettle (deadnettle; 125 g ai/ha): 25
- Plant response rating, Deadnettle (deadnettle; 250 g ai/ha): 100
- Plant response rating, Wheat, Spring (wheat, spring; 31 g ai/ha): 5
- Plant response rating, Wheat, Spring (wheat, spring; 62 g ai/ha): 55
- Plant response rating, Wheat, Spring (wheat, spring; 125 g ai/ha): 80
- Plant response rating, Wheat, Spring (wheat, spring; 250 g ai/ha): 100
- Plant response rating, Wheat, Winter (wheat, winter; 31 g ai/ha): 15
- Plant response rating, Wheat, Winter (wheat, winter; 62 g ai/ha): 50
- Plant response rating, Wheat, Winter (wheat, winter; 125 g ai/ha): 80
- Plant response rating, Wheat, Winter (wheat, winter; 250 g ai/ha): 95
- Plant response rating, Bluegrass (bluegrass; 31 g ai/ha): 50
- Plant response rating, Bluegrass (bluegrass; 62 g ai/ha): 80
- Plant response rating, Bluegrass (bluegrass; 125 g ai/ha): 95
- Plant response rating, Bluegrass (bluegrass; 250 g ai/ha): 100
- Plant response rating, Field Bindweed (field bindweed; [1]): 100
- Plant response rating, Field Bindweed (field bindweed; [2]): 90
- Plant response rating, Field Bindweed (field bindweed; [3]): 95
- Plant response rating, Field Bindweed (field bindweed; [4]): 0
- Plant response rating, Field Bindweed (field bindweed; [5]): 0
- Plant response rating, Green Foxtail (green foxtail; [1]): 60
- Plant response rating, Green Foxtail (green foxtail; [2]): 100
- Plant response rating, Green Foxtail (green foxtail; [3]): 100
- Plant response rating, Green Foxtail (green foxtail; [4]): 10
- Plant response rating, Green Foxtail (green foxtail; [5]): 60
- Plant response rating, Mustard, Wild (mustard, wild; 31 g ai/ha): 100
- Plant response rating, Mustard, Wild (mustard, wild; 62 g ai/ha): 100
- Plant response rating, Mustard, Wild (mustard, wild; 125 g ai/ha): 100
- Plant response rating, Mustard, Wild (mustard, wild; 250 g ai/ha): 100
- Plant response rating, Radish, Wild (radish, wild; 31 g ai/ha): 100
- Plant response rating, Radish, Wild (radish, wild; 62 g ai/ha): 100
- Plant response rating, Radish, Wild (radish, wild; 125 g ai/ha): 100
- Plant response rating, Radish, Wild (radish, wild; 250 g ai/ha): 100
- Plant response rating, Corn (corn; [1]): 20
- Plant response rating, Corn (corn; [2]): 65
- Plant response rating, Corn (corn; [3]): 70
- Plant response rating, Corn (corn; [4]): 0
- Plant response rating, Corn (corn; [5]): 10
- Plant response rating, Common Ragweed (common ragweed; [1]): 90
- Plant response rating, Common Ragweed (common ragweed; [2]): 98
- Plant response rating, Common Ragweed (common ragweed; [3]): 100
- Plant response rating, Common Ragweed (common ragweed; [4]): 0
- Plant response rating, Common Ragweed (common ragweed; [5]): 30
- Plant response rating, Oilseed Rape (oilseed rape; 31 g ai/ha): 35
- Plant response rating, Oilseed Rape (oilseed rape; 62 g ai/ha): 80
- Plant response rating, Oilseed Rape (oilseed rape; 125 g ai/ha): 100
- Plant response rating, Oilseed Rape (oilseed rape; 250 g ai/ha): 100
- Blackgrass plant response rating (blackgrass; Postemergence, 31 g ai/ha): 5
- Blackgrass plant response rating (blackgrass; Postemergence, 125 g ai/ha): 30
- Blackgrass plant response rating (blackgrass; Postemergence, 250 g ai/ha): 65
- Blackgrass plant response rating (blackgrass; postemergence, 62 g ai/ha): 10
- Plant response rating, Fall Panicum (fall panicum; [1]): 90
- Plant response rating, Fall Panicum (fall panicum; [2]): 100
- Plant response rating, Fall Panicum (fall panicum; [3]): 100
- Plant response rating, Fall Panicum (fall panicum; [4]): 40
- Plant response rating, Fall Panicum (fall panicum; [5]): 70

SMILES: CCCc1cc(C(=O)NCC(F)(F)F)nn1Cc1ccnc(C(F)(F)F)c1 [Compound 105]
- Plant response rating, Arrowleaf Sida (arrowleaf sida; [1]): 0
- Plant response rating, Arrowleaf Sida (arrowleaf sida; [2]): 0
- Plant response rating, Arrowleaf Sida (arrowleaf sida; [3]): 15
- Plant response rating, Arrowleaf Sida (arrowleaf sida; [4]): 0
- Plant response rating, Arrowleaf Sida (arrowleaf sida; [5]): 0
- Plant response rating, Deadnettle (deadnettle; 31 g ai/ha): 5
- Plant response rating, Deadnettle (deadnettle; 125 g ai/ha): 20
- Plant response rating, Deadnettle (deadnettle; 250 g ai/ha): 35
- Plant response rating, Wheat, Spring (wheat, spring; 31 g ai/ha): 10
- Plant response rating, Wheat, Spring (wheat, spring; 62 g ai/ha): 40
- Plant response rating, Wheat, Spring (wheat, spring; 125 g ai/ha): 75
- Plant response rating, Wheat, Spring (wheat, spring; 250 g ai/ha): 100
- Plant response rating, Wheat, Winter (wheat, winter; 31 g ai/ha): 15
- Plant response rating, Wheat, Winter (wheat, winter; 62 g ai/ha): 35
- Plant response rating, Wheat, Winter (wheat, winter; 125 g ai/ha): 75
- Plant response rating, Wheat, Winter (wheat, winter; 250 g ai/ha): 90
- Plant response rating, Bluegrass (bluegrass; 31 g ai/ha): 55
- Plant response rating, Bluegrass (bluegrass; 62 g ai/ha): 80
- Plant response rating, Bluegrass (bluegrass; 125 g ai/ha): 100
- Plant response rating, Bluegrass (bluegrass; 250 g ai/ha): 100
- Plant response rating, Field Bindweed (field bindweed; [1]): 75
- Plant response rating, Field Bindweed (field bindweed; [2]): 40
- Plant response rating, Field Bindweed (field bindweed; [3]): 100
- Plant response rating, Field Bindweed (field bindweed; [4]): 0
- Plant response rating, Field Bindweed (field bindweed; [5]): 10
- Plant response rating, Green Foxtail (green foxtail; [1]): 75
- Plant response rating, Green Foxtail (green foxtail; [2]): 100
- Plant response rating, Green Foxtail (green foxtail; [3]): 100
- Plant response rating, Green Foxtail (green foxtail; [4]): 0
- Plant response rating, Green Foxtail (green foxtail; [5]): 25
- Plant response rating, Mustard, Wild (mustard, wild; 31 g ai/ha): 100
- Plant response rating, Mustard, Wild (mustard, wild; 62 g ai/ha): 100
- Plant response rating, Mustard, Wild (mustard, wild; 125 g ai/ha): 100
- Plant response rating, Mustard, Wild (mustard, wild; 250 g ai/ha): 100
- Plant response rating, Radish, Wild (radish, wild; 31 g ai/ha): 35
- Plant response rating, Radish, Wild (radish, wild; 62 g ai/ha): 100
- Plant response rating, Radish, Wild (radish, wild; 125 g ai/ha): 100
- Plant response rating, Radish, Wild (radish, wild; 250 g ai/ha): 100
- Plant response rating, Corn (corn; [1]): 40
- Plant response rating, Corn (corn; [2]): 40
- Plant response rating, Corn (corn; [3]): 60
- Plant response rating, Corn (corn; [4]): 20
- Plant response rating, Corn (corn; [5]): 30
- Plant response rating, Common Ragweed (common ragweed; [2]): 35
- Plant response rating, Common Ragweed (common ragweed; [3]): 100
- Plant response rating, Common Ragweed (common ragweed; [4]): 0
- Plant response rating, Common Ragweed (common ragweed; [5]): 0
- Plant response rating, Oilseed Rape (oilseed rape; 31 g ai/ha): 0
- Plant response rating, Oilseed Rape (oilseed rape; 62 g ai/ha): 10
- Plant response rating, Oilseed Rape (oilseed rape; 125 g ai/ha): 70
- Plant response rating, Oilseed Rape (oilseed rape; 250 g ai/ha): 95
- Blackgrass plant response rating (blackgrass; Postemergence, 31 g ai/ha): 10
- Blackgrass plant response rating (blackgrass; Postemergence, 125 g ai/ha): 65
- Blackgrass plant response rating (blackgrass; Postemergence, 250 g ai/ha): 70
- Blackgrass plant response rating (blackgrass; postemergence, 62 g ai/ha): 15
- Plant response rating, Fall Panicum (fall panicum; [1]): 100
- Plant response rating, Fall Panicum (fall panicum; [2]): 100
- Plant response rating, Fall Panicum (fall panicum; [3]): 100
- Plant response rating, Fall Panicum (fall panicum; [4]): 75
- Plant response rating, Fall Panicum (fall panicum; [5]): 80

Reference: US20150105252A1, “SUBSTITUTED PYRAZOLES AS HERBICIDES” (E I DU PONT DE NEMOURS AND COMPANY, priority 2013, published 2015)
